Source: patent publication US20250090510A1, “eIF4G1-eIF1 INHIBITORS AND USE THEREOF” (YEDA RESEARCH AND DEVELOPMENT CO. LTD., priority 2022, published 2025)

Tests used:
[1] = test system: leaky scanning from cap-proximal AUG in HEK293T cells; experiment: Leaky scanning GFP reporter with cap-proximal upstream AUG, western blot; type: cell-based, human; details: upstream AUG with 16 nt 5′UTR
Source text: FIGS. 1A-G: Identification and initial characterization of eIF1-eIF4G1 inhibitors using a high-throughput drug screen (HTS). (1A) A flowchart describing the steps of the recombinant eIF1-eIF4G1 split-RL HTS. (1B) Selection of drugs that inhibit leaky scanning. HEK293T cells were transfected with a short 5′UTR bearing GFP reporter gene described on the top, treated with the indicated HTS hits, and then analyzed by western blot with GFP antibody. US and DS denote upstream and downstream AUG initiation sites, respectively. (1C) A graph showing the change in the ratio of the upstream and downstream AUG following treatment with the indicated drugs. (1D) The chemical structure of the eIF1-eIF4G1 inhibitors, i14G1-10 and i14G1-12. (1E) His-tagged eIF4G1 and His-tagged eIF1 were expressed in BL21 bacteria and purified using nickel NTA beads. Purified His-tagged eIF4G1 and His-tagged eIF1 were incubated with the indicated doses of either i14G1-10 (0-256 μM) or i14G1-12 (0-256 μM) for 5 minutes, followed by fluorescence measurement. For eIF4G1 excitation was at 280 nm and emission was at 350 nm. For eIF1 excitation was at 274 nm and emission was at 304 nm. The data shown represent three independent replicates. IC50 was calculated using Graphpad prism 9. (1F-1G) Western blots of GST pull down. […]
To address the functional significance of the temporal eIF1-eIF4G1 interaction, the inventors set out to develop pharmacological tools against this complex. To this end, the split-Renilla luciferase (RL) complementation assay previously found to be an efficient readout of eIF1 and eIF4G1 interaction in mammalian cells and a highly sensitive and powerful approach for the identification of protein-protein inhibitors was used. […] As knockdown of either eIF1 or eIF4G1 and interference with eIF1-eIF4G1 interaction led to the arrest of leaky scanning from cap-proximal AUG, the selected compounds were analyzed for their effect on initiation from cap-proximal AUG. […]

eIF1-eIF4G1 complex = biological target: T1, eIF1-eIF4G1 complex (Homo sapiens, UniProt Q04637); experiment: Co-immunoprecipitation of endogenous eIF4G1 with HA-eIF1; type: cell-based; details: ER stress, Thapsigargin 1 μM, 1 hour
T1 construct: co-immunoprecipitation of endogenous eIF4G1 in HEK293T cells expressing HA-eIF1 or HA-eIF4E was performed; endogenous in cells; host or cells: HEK293T (eIF4G1 endogenous; HA-eIF1 transfected)
T1 sequence (Q04637 whole entry, one chain of several): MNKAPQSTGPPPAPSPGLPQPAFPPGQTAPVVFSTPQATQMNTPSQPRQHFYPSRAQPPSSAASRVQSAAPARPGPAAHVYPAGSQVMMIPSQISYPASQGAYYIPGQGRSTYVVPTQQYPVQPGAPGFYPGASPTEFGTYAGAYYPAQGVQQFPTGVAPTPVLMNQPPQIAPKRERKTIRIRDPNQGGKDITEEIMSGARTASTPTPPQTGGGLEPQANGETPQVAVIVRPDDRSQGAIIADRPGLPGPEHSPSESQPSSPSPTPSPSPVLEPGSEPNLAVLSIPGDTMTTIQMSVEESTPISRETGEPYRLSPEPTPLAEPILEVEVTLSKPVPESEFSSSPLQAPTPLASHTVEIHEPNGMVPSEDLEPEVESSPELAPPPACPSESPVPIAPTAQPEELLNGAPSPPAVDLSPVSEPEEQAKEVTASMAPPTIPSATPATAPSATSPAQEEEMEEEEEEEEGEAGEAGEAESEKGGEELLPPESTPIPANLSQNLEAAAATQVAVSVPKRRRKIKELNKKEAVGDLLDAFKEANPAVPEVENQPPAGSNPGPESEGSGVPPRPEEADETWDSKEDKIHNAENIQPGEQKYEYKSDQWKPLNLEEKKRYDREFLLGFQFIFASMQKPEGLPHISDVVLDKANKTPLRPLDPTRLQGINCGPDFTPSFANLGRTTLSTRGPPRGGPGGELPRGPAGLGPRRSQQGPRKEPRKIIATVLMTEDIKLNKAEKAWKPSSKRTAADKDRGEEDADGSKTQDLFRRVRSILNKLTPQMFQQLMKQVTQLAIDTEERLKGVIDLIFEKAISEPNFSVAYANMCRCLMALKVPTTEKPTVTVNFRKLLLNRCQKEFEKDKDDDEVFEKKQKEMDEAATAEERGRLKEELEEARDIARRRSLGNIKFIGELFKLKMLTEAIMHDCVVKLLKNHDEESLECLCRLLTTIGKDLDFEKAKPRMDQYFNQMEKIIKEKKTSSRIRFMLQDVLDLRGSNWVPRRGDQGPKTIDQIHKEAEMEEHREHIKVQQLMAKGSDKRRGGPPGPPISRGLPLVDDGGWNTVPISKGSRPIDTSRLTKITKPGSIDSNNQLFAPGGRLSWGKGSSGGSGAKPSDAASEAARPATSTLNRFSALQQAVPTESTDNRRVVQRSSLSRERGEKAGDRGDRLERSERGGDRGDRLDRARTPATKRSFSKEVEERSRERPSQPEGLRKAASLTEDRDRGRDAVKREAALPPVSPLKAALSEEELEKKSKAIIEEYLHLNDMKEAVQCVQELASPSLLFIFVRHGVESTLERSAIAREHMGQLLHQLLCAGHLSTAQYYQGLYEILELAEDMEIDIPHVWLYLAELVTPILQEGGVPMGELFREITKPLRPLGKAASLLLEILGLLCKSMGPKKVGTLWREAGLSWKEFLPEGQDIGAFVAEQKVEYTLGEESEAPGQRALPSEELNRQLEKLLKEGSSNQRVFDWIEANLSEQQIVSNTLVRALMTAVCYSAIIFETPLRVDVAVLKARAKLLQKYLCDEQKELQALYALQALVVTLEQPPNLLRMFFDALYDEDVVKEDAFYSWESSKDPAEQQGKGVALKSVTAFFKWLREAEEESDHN
Procedure: (§1) FIGS. 2A-C: The effect of i14G1-10 and i14G1-12 on eIF1-eIF4G1 and eIF4E-eIF4G1 complexes. (2A-B) HA-eIF1 and HA-eIF4E were each transfected into HEK293T cells and 48 h after transfection cells were treated with DMSO or i14G1-10 (2A) or i14G1-12 (2B) for 4 h, followed by immunoprecipitation of HA-eIF1 or HA-eIF4E using anti-HA-agarose beads. Western blot was run to check co-immunoprecipitation of endogenous eIF4G1 with HA-eIF1 or HA-eIF4E. The graphs represent the co-immunoprecipitation of eIF4G1 with HA-eIF1 (right) or HA-eIF4E (left). Co—IP data shown as mean±SEM of 4-7 independent experiments. The asterisks denote statistically significant difference compared to DMSO, according to Student's t-tests (one-tailed, paired). *p<0.05. (2C) HEK293T cells were treated with DMSO, i14G1-10, or i14G1-12 for 4 h, followed by cell lysis. Respective cell lysates were incubated with cap analog (γ-Aminohexyl-m7GTP) beads for 2 h to precipitate bound eIF4E. Western blot was performed to check co-precipitation of eIF4G1 along with eIF4E on the cap-analog beads. The graph represents the binding fraction of eIF4G1 and eIF4E to the cap-analog beads (mean±SEM) with DMSO (black), i14G1-10 (blue), and i14G1-12 (red), n=6. The asterisks denote statistically significant difference compared to DMSO, according to Student's t-tests (one-tailed, paired). *p<0.05; **p<0.01.
(§2) Co-immunoprecipitation. HEK293T cells were transfected with 5 μg of HA-eIF1 or HA-eIF4E plasmids along with 10 ng GFP plasmid to check for transfection efficiency using Jetprime reagent as per manufacturer's protocol. After 48 h, HA-eIF1 and HA-eIF4E expressing HEK293T cells were incubated with DMSO, i14G1-10 (20 μM), and […] (10 μM). 4 h later, cells were lysed using IP buffer (20 mM Tris pH8, 125 mM NaCl, 10% glycerol, 50 mM NaF, 1 mM […], 0.5% NP-40, and 0.2 mM EDTA) supplemented with fresh protease inhibitor cocktail (1:100) and PMSF 200 μM (1:100). Protein extract was taken for immunoprecipitation using either monoclonal anti-HA-agarose antibody (Sigma) or control IgG antibody in IP buffer, at 4° C. for 2 hours. […]

eIF4E-eIF4G1 complex = biological target: T2, eIF4E-eIF4G1 complex (Homo sapiens, UniProt Q04637); experiment: Co-immunoprecipitation of endogenous eIF4G1 with HA-eIF4E; type: cell-based; details: ER stress, Thapsigargin 1 μM, 1 hour
T2 construct: co-immunoprecipitation of endogenous eIF4G1 in HEK293T cells expressing HA-eIF1 or HA-eIF4E was performed; endogenous in cells; host or cells: HEK293T (eIF4G1 endogenous; HA-eIF4E transfected)
T2 sequence (Q04637 whole entry): as the sequence (Q04637 whole entry, one chain of several) above
T2 sequence (P06730 whole entry partner): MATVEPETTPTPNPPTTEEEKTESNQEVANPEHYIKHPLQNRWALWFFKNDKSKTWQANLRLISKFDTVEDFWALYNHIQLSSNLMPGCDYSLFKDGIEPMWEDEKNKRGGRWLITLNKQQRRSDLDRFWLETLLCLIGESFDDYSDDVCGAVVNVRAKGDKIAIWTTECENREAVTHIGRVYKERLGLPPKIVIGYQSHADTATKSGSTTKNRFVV
Procedure: as §1, §2

SMILES | upstream to downstream AUG ratio (leaky scanning) [1] | reduction of co-precipitated eIF4G1 with HA-eIF1 (eIF1-eIF4G1 complex) [%] | level of co-precipitated eIF4G1 with HA-eIF4E (eIF4E-eIF4G1 complex)
Cc1ccc(/C(=C\C=C(C#N)C#N)Sc2nc3ccccc3s2)cc1 [i14G1-11] | selectively changed the upstream to downstream ratio by inhibiting leaky scanning from the cap-proximal AUG | – | –
C/C=C(/C)C(=O)O[C@H]1C(C)=C2[C@H]([C@@H]1OC(=O)CCCCCCC)[C@@](C)(OC(C)=O)C[C@H](OC(=O)CCC)[C@@]1(O)[C@H]2OC(=O)[C@@]1(C)O [Thapsigargin, reference compound] | – | 50 | no significant change
